Like-named read-outs stand apart in the source and are kept apart here.
How the values were obtained:
[1] = Cynomolgus monkey pharmacokinetic study; assay type: in vivo, cynomolgus monkeys; details: subcutaneous, 12.5 nmol/kg
Experimental: Pharmacokinetics studies of teduglutide, GLP-2 Peptibody B and GLP-2 Peptibody K were formed in cynomolgus monkeys with citrulline assayed as a biomarker of GLP-2 concentration. In the study, 12.5 nmol/kg teduglutide was administered subcutaneously to a group of 6 male cynomolgus monkeys at day 1. Then for one set of 2 monkeys, 25 nmol/kg GLP-2 Peptibody B was administered intravenously at day 7, day 21, day 28, day 35, and day 42. For another set of 3 monkeys, 25 nmol/kg GLP-2 Peptibody B was administered subcutaneously at day 7, day 21, day 28, day 35, and day 42. For another set of monkeys, 5 nmol/kg GLP-2 Peptibody K was administered intravenously (2 monkeys) and subcutaneously (3 monkeys) at day 7, day 21, day 28, day 35, and day 42. For another set of monkeys, 25 nmol/kg GLP-2 Peptibody K was administered subcutaneously (3 monkeys) and intravenously (2 monkeys) at day 7, day 21, day 28, day 35, and day 42.

[2] = cited from earlier work
[3] = target: monomer/dimer self-association; assay: Microscale thermophoresis (MST) monomer/dimer equilibrium; assay type: physicochemical
Experimental: (§1) Microscale thermophoresis (MST) and nano differential scanning fluorimetry (NanoDSF) were performed to characterize the dimer-monomer transition. MST was used to determine the monomer/dimer equilibrium dissociation constant Kd. MST is based on thermodriven diffusion of molecules while NanoDSF is based on Trp fluorescence and is commonly used for thermostability Tm.

[4] = target: GLP-2-Fc self-association; assay: NanoDSF at room temperature, monomer/dimer self-association; assay type: physicochemical
Experimental: as §1
In the NanoDSF assay, room temperature is used and one tryptophan in GLP-2 is targeted that potentially undergoes conformational changes during GLP-2-Fc self-association. Only the tryptophan fluorescence from the protein contributes to the signal. If tryptophan is buried or stable, the peak is at 330 nm and if the tryptophan is exposed or flexible, the peak is at 350 nm.

[5] = tested on: mice; assay: Fat (triglyceride) tolerance test with olive oil bolus; assay type: in vivo; details: female mice, 4.5 mg/kg every 3 days for 13 days, olive oil bolus 10 mL/kg, vs vehicle
Experimental: A fat tolerance assay was performed in mice to assess the ability of GLP-2 peptibody K274 to promote absorption of dietary fats. Dietary fat is hydrolyzed into free fatty acids and glycerides, which are transported through the intestinal villi and absorbed by enterocytes. The enterocytes synthesize the triglycerides, which then enter the bloodstream. Such postprandial triglycerides peak in the bloodstream at about 3 hours after ingestion of a fat-rich meal.
It is hypothesized that GLP-2 peptibody K274, by enhancing length of the intestinal villi, would improve the absorption of fatty acids in a mouse model of short bowel syndrome. Assaying for an increase in peak postprandial triglycerides allows for detection of such increased absorption.
Female mice were divided into two groups of […] mice each. Both groups were treated every 3 days for a total of 13 days either with 4.5 mg/kg K274 peptibody (treated group) or vehicle (control group). On day 14 after start of treatment, mice in both groups were fasted for 6 hours followed by administration of an olive oil bolus of 10 mL/kg. Mice in the treated and control groups were divided into 6 subgroups of 6 animals each. […] Plasma triglyceride concentrations were measured on a Cobas C311 instrument (Roche) using the TRIGB assay kit.

[6] = Mouse pharmacokinetics of GLP-2 peptibody K274; assay type: in vivo; details: CD1 mice, Q3D over 14 days
Experimental: A pharmacokinetics analysis was performed in CD1 mice. […] Mice were divided into groups, with one group administered 0.45 mg/kg every three days (Q3D), another administered 1.5 mg/kg Q3D, another administered 4.5 mg/kg Q3D, and another administered 15 mg/kg Q3D over a 14 day period. After dosing was discontinued, concentrations were measured 3, 9, 14, and 21 days later.

[7] = tested on: CD-1 mice; assay: Pharmacodynamic plateau study (small intestine weight); assay type: in vivo; details: female CD-1 mice
Experimental: Various doses of GLP-2 peptibody K274 were analyzed in female CD-1 mice to assess the pharmacodynamic plateau, with the primary endpoint a measurement of the small intestinal weight relative to the total body weight and a histology study of the length of villi. Eight groups of six females each were formed. In two groups, only the vehicle was administered Q3D for as a negative control. In four groups, the following doses were administered Q3D over 14 days: 0.45 mg/kg, 1.5 mg/kg, 4.5 mg/kg and 15 mg/kg. In one additional group, 4.5 mg/kg was administered Q3D for 14 days with the study ending four days later at day 18. In another additional group, 4.5 mg/kg was administered Q3D for 14 days with the study ending seven days later at day 21.
For the primary endpoint, the small intestine weight in grams is shown in FIG. 12A, the small intestine weight normalized to body weight is shown in FIG. 12B, and the colon weight normalized to body weight is shown in FIG. 12C. A dose of 4.5 mg/kg had maximum effect.
FIG. 13B is a graph depicting the percentage change in small intestine weight for both vehicle and GLP-2 peptibody K274.

[8] = tested on: CD-1 mice; assay: Histology study of villi length, washout period; assay type: in vivo, female CD-1 mice; details: 4.5 mg/kg Q3D over 14 days, days 15, 18, 21
Experimental: Various doses of GLP-2 peptibody B264 were analyzed to assess the pharmacodynamic plateau, with the primary endpoint a measurement of the small intestinal weight relative to the total body weight and a histology study of the length of villi. 11 groups of six female CD-1 mice each were formed.
For histology, four micron paraffin sections were prepared for H&E and Ki67 IHC staining. After whole slide scanning, an imagescope was used to measure villi length and crypt depth, and to analyze Ki67. The antibody against Ki67 is a rabbit antibody sold by Adcam®, catalog number ab 616667. The antibody was used at a working concentration of 1:100 and was detected using a Leica® Refine Kit.
The first day after the washout period ends is day 15, the second day is day 16, etc. Day 2 of the washout period corresponds with day 15. Day 5 of the washout period corresponds with day 18. Day 8 of the washout period corresponds with day 21. D15, D18, and D21 correspond to days 15, 18 and 21 on which the villi length was measured.

[9] = Rat pharmacokinetic comparability with/without C-terminal lysine; assay type: in vivo, Sprague-Dawley rats; details: 1 mg/kg, intravenous and subcutaneous
Experimental: 1 mg/kg of total GLP-2 peptibody K protein was administered subcutaneously to one group of six male Sprague-Dawley rats. 1 mg/kg of total GLP-2 peptibody K274 protein was administered intravenously to another group of six male Sprague-Dawley rats. 1 mg/kg of total GLP-2 peptibody B protein was administered subcutaneously to a third group of five male Sprague-Dawley rats. 1 mg/kg of total GLP-2 peptibody B264 protein was administered subcutaneously to a fourth group of five male Sprague-Dawley rats.
For all of the above groups, plasma samples were taken pre-dose, and at the following time points post-dose: 5 minutes (day 1), 10 minutes (day 1), 20 minutes (day 1), 30 minutes (day 1), 1 hour (day 1), 2 hours (day 1), 6 hours (day 1), 24 hours (day 2), 48 hours (day 3), 72 hours (day 4), 120 hours (day 6), 168 hours (day 8), 240 hours (day 11), and 336 hours (day 15).
Tables showing the pharmacokinetic data comparing intravenously administered GLP-2 peptibody K and GLP-2 peptibody K274 are in FIG. 10B. Tables showing the pharmacokinetic data comparing subcutaneously administered GLP-2 peptibody K and GL-2 peptibody K274 are in FIG. 10C.

Vc [1] | association constant (ka) [1] | Kd [3] | Kd [4] | Compound | half-life ([2]; SBS patients) | half-life ([2]; healthy patients) | postprandial triglyceride concentration in the bloodstream [5] | CL/F [6] | Vc [6] | persistence of increased small intestine weight normalized to body weight after dosing ([7]; 4.5 mg/kg Q3D for 14 days, washout) | dose with maximum effect on small intestine / colon weight ([7]; Q3D over 14 days) | persistence of villi length during washout period [8] | pharmacokinetic comparability of K and K274 [9]
0.218 L/kg | 9.67 day⁻¹ | 24 ± 3 µM | 77 ± 14 µM | CC[C@H](C)[C@H](NC(=O)[C@H](Cc1ccccc1)NC(=O)[C@H](CC(=O)O)NC(=O)[C@H](CCCNC(=N)N)NC(=O)[C@H](C)NC(=O)[C@H](C)NC(=O)[C@H](CC(C)C)NC(=O)[C@H](CC(N)=O)NC(=O)[C@H](CC(=O)O)NC(=O)[C@H](CC(C)C)NC(=O)[C@@H](NC(=O)[C@@H](NC(=O)[C@H](CC(N)=O)NC(=O)[C@H](CCSC)NC(=O)[C@H](CCC(=O)O)NC(=O)[C@H](CC(=O)O)NC(=O)[C@H](CO)NC(=O)[C@H](Cc1ccccc1)NC(=O)[C@H](CO)NC(=O)CNC(=O)[C@H](CC(=O)O)NC(=O)CNC(=O)[C@@H](N)Cc1c[nH]cn1)[C@@H](C)O)[C@@H](C)CC)C(=O)N[C@@H](CC(N)=O)C(=O)N[C@@H](Cc1c[nH]c2ccccc12)C(=O)N[C@@H](CC(C)C)C(=O)N[C@H](C(=O)N[C@@H](CCC(N)=O)C(=O)N[C@H](C(=O)N[C@@H](CCCCN)C(=O)N[C@H](C(=O)N[C@H](C(=O)N[C@@H](CC(=O)O)C(=O)O)[C@@H](C)O)[C@@H](C)CC)[C@@H](C)O)[C@@H](C)CC [teduglutide] | ~1.3 h | approximately 2 hours |  |  |  |  |  |  | 
 |  |  |  | GLP-2 peptibody K274: GLP-2[A2G]-GGGGSGGGGSGGGGS linker-IgG1 Fc (LALA) without C-terminal lysine; SEQ ID NO: 7 |  |  | significantly higher | 3.39 mL/h/kg | 0.213 L/kg | persisted for at least five days after dosing | 4.5 mg/kg | more persistence than does GLP-2 peptibody B264 | identical from a pharmacokinetic point of view
